Test results: PubChem BioAssay AID248 (DTP/NCI, 2004)
“And” between values parts separate entries of the source, which are not always exact repeats. Identical values can stand only once. Toxic doses and inconclusive results are not listed.

Test system: L1210 leukemia ip in BDF1 mice, survival T/C
Assay: NCI In Vivo Anticancer Drug Screen. Data for tumor model L1210 Leukemia (intraperitoneal) in B6D2F1 (BDF1) mice
Conditions: endpoint: mean survival time, higher = longer survival
In short: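 Survival endpoint. Drug-treated group vs vehicle group, expressed as T divided by C. Tumor passaged by transplantation.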

[1] = dose: 50.0 mg/kg/injection, schedule: Q01DX001 (ip), vehicle: saline
[2] = dose: 100.0 mg/kg/injection, schedule: Q01DX009 (ip), vehicle: saline with Tween-80
[3] = dose: 100.0 mg/kg/injection, schedule: Q04DX003 (ip), vehicle: saline with Tween-80
[4] = dose: 100.0 mg/kg/injection, schedule: Q01DX001 (ip), vehicle: Klucel (hydroxypropylcellulose) (HPC)
[5] = dose: 200.0 mg/kg/injection, schedule: Q04DX003 (ip), vehicle: saline with Tween-80
[6] = dose: 400.0 mg/kg/injection, schedule: Q04DX003 (ip), vehicle: saline with Tween-80
[7] = dose: 20.0 mg/kg/injection, schedule: Q01DX009 (ip), vehicle: saline
[8] = dose: 40.0 mg/kg/injection, schedule: Q01DX009 (ip), vehicle: saline
[9] = dose: 100.0 mg/kg/injection, schedule: Q04DX002 (ip), vehicle: Klucel (hydroxypropylcellulose) (HPC)
[10] = dose: 200.0 mg/kg/injection, schedule: Q04DX002 (ip), vehicle: Klucel (hydroxypropylcellulose) (HPC)
[11] = dose: 400.0 mg/kg/injection, schedule: Q04DX002 (ip), vehicle: Klucel (hydroxypropylcellulose) (HPC)

For CS(=O)(=O)OCCN(CCOS(C)(=O)=O)c1ccc([N+](=O)[O-])c(C(F)(F)F)c1, the T/C [1] was 94 % of control, the T/C (dose: 100.0 mg/kg/injection, schedule: Q01DX001 (ip), vehicle: saline) was 96 % of control and the T/C (dose: 200.0 mg/kg/injection, schedule: Q01DX001 (ip), vehicle: saline) was 96 % of control. For the same molecule, the T/C (dose: 400.0 mg/kg/injection, schedule: Q01DX001 (ip), vehicle: saline) was 94 % of control.
For O=C(Nc1ccc(Cl)c(Cl)c1)OCCN1CCOCC1, the T/C (dose: 100.0 mg/kg/injection, schedule: Q01DX009 (ip), vehicle: Klucel (hydroxypropylcellulose) (HPC)) was 92 % of control, the T/C (dose: 200.0 mg/kg/injection, schedule: Q01DX009 (ip), vehicle: Klucel (hydroxypropylcellulose) (HPC)) was 94 % of control and the T/C (dose: 400.0 mg/kg/injection, schedule: Q01DX009 (ip), vehicle: Klucel (hydroxypropylcellulose) (HPC)) was 92 % of control.
In the case of O=C(NC(NC(=O)c1ccc(Cl)cc1)C(Cl)(Cl)Cl)c1ccc(Cl)cc1, the T/C (dose: 25.0 mg/kg/injection, schedule: Q01DX009 (ip), vehicle: saline with Tween-80) is reported as 100 % of control, the T/C (dose: 50.0 mg/kg/injection, schedule: Q01DX009 (ip), vehicle: saline with Tween-80) is reported as 93 % of control and the T/C [2] is reported as 92 % of control. The T/C [3] was 92 % of control.
For CC1(c2ccc(C(O)c3ccccc3)s2)OCCO1 (centres undefined), the T/C (dose: 33.0 mg/kg/injection, schedule: Q01DX009 (ip), vehicle: carboxymethylcellulose (CMC)) was 103 % of control, the T/C (dose: 37.5 mg/kg/injection, schedule: Q04DX003 (ip), vehicle: Klucel (hydroxypropylcellulose) (HPC)) was 109 % of control and the T/C (dose: 50.0 mg/kg/injection, schedule: Q01DX009 (ip), vehicle: carboxymethylcellulose (CMC)) was 98 % of control. The T/C (dose: 75.0 mg/kg/injection, schedule: Q01DX001 (ip), vehicle: carboxymethylcellulose (CMC)) was 109 % of control, the T/C (dose: 75.0 mg/kg/injection, schedule: Q01DX009 (ip), vehicle: carboxymethylcellulose (CMC)) was 103 % of control and the T/C (dose: 75.0 mg/kg/injection, schedule: Q04DX003 (ip), vehicle: Klucel (hydroxypropylcellulose) (HPC)) was 109 % of control. For the same molecule, the T/C [4] was 103 % of control, the T/C (dose: 150.0 mg/kg/injection, schedule: Q01DX001 (ip), vehicle: Klucel (hydroxypropylcellulose) (HPC)) was 97 % of control and the T/C (dose: 150.0 mg/kg/injection, schedule: Q01DX009 (ip), vehicle: carboxymethylcellulose (CMC)) was 113 % of control. The T/C (dose: 225.0 mg/kg/injection, schedule: Q01DX001 (ip), vehicle: Klucel (hydroxypropylcellulose) (HPC)) was 109 % of control.
In the case of Cc1cnc2c(N)nn(-c3ccccc3)c2n1, the T/C [2] is reported as 93 % of control, the T/C [3] is reported as 95 % of control and the T/C (dose: 200.0 mg/kg/injection, schedule: Q01DX009 (ip), vehicle: saline with Tween-80) is reported as 101 % of control. For the same molecule, the T/C [5] was 97 % of control, the T/C (dose: 400.0 mg/kg/injection, schedule: Q01DX009 (ip), vehicle: saline with Tween-80) was 98 % of control and the T/C [6] was 94 % of control.
For CC1(C)CS(=O)(=O)CC(C)(C)C(=O)C1=O, the T/C [4] was 108 % of control.
CCC1CCN(CC)CC1 was tested, and the T/C (dose: 10.0 mg/kg/injection, schedule: Q01DX001 (ip), vehicle: saline) was 101 % of control, the T/C (dose: 10.0 mg/kg/injection, schedule: Q01DX009 (ip), vehicle: saline) was 92 % of control and 102 % of control and the T/C (dose: 10.0 mg/kg/injection, schedule: Q04DX002 (ip), vehicle: saline) was 100 % of control and 109 % of control. The T/C (dose: 10.0 mg/kg/injection, schedule: Q04DX003 (ip), vehicle: saline) was 102 % of control, the T/C (dose: 20.0 mg/kg/injection, schedule: Q01DX001 (ip), vehicle: saline) was 101 % of control and the T/C [7] was 101 % of control and 108 % of control. For the same molecule, the T/C (dose: 20.0 mg/kg/injection, schedule: Q04DX002 (ip), vehicle: saline) was 100 % of control and 117 % of control, the T/C (dose: 20.0 mg/kg/injection, schedule: Q04DX003 (ip), vehicle: saline) was 103 % of control and the T/C (dose: 40.0 mg/kg/injection, schedule: Q01DX001 (ip), vehicle: saline) was 95 % of control. For the same molecule, the T/C [8] was 94 % of control, the T/C (dose: 40.0 mg/kg/injection, schedule: Q04DX002 (ip), vehicle: saline) was 94 % of control and 102 % of control and the T/C (dose: 40.0 mg/kg/injection, schedule: Q04DX003 (ip), vehicle: saline) was 102 % of control.
For CS(=O)(=O)Nc1ccc(Nc2c3ccccc3nc3ccccc23)cc1, the T/C (dose: 10.0 mg/kg/injection, schedule: Q01DX009 (sc), vehicle: saline) was 108 % of control, the T/C (dose: 12.5 mg/kg/injection, schedule: Q01DX001 (ip), vehicle: saline) was 101 % of control and the T/C [7] was 161 % of control. For the same molecule, the T/C (dose: 20.0 mg/kg/injection, schedule: Q01DX009 (sc), vehicle: saline) was 116 % of control, the T/C (dose: 25.0 mg/kg/injection, schedule: Q01DX001 (ip), vehicle: saline) was 119 % of control and the T/C [8] was 107 % of control. The T/C [1] was 104 % of control, the T/C (dose: 117.0 mg/kg/injection, schedule: Q01DX009 (ip), vehicle: carboxymethylcellulose (CMC)) was 97 % of control and the T/C (dose: 176.0 mg/kg/injection, schedule: Q01DX001 (ip), vehicle: carboxymethylcellulose (CMC)) was 151 % of control. The T/C (dose: 176.0 mg/kg/injection, schedule: Q01DX009 (ip), vehicle: carboxymethylcellulose (CMC)) was 100 % of control, the T/C (dose: 240.0 mg/kg/injection, schedule: Q04DX003 (ip), vehicle: Klucel (hydroxypropylcellulose) (HPC)) was 156 % of control and the T/C (dose: 264.0 mg/kg/injection, schedule: Q01DX001 (ip), vehicle: carboxymethylcellulose (CMC)) was 161 % of control. For the same molecule, the T/C (dose: 266.0 mg/kg/injection, schedule: Q01DX001 (ip), vehicle: carboxymethylcellulose (CMC)) was 158 % of control, the T/C (dose: 400.0 mg/kg/injection, schedule: Q01DX001 (ip), vehicle: carboxymethylcellulose (CMC)) was 150 % of control and the T/C (dose: 600.0 mg/kg/injection, schedule: Q01DX001 (ip), vehicle: carboxymethylcellulose (CMC)) was 179 % of control and 253 % of control.
With COc1ccc(C(C(C)=O)N2CCN(c3ccccc3)CC2)cc1 (centres undefined) the T/C (dose: 100.0 mg/kg/injection, schedule: Q04DX003 (ip), vehicle: other) was 98 % of control and the T/C (dose: 200.0 mg/kg/injection, schedule: Q04DX003 (ip), vehicle: other) was 95 % of control.
In the case of O=S(=O)(NC(CCl)=NC1CCCCC1)c1ccccc1, the T/C [9] is reported as 89 % of control, the T/C [10] is reported as 100 % of control and the T/C [11] is reported as 104 % of control.
In the case of c1ccc(N(CC2CO2)CC2CO2)cc1 (centres undefined), the T/C [3] is reported as 106 % of control, the T/C [5] is reported as 104 % of control and the T/C [6] is reported as 112 % of control.
For CC(Oc1ccc([N+](=O)[O-])cc1Cl)C(=O)Nc1ccc(S(=O)(=O)F)cc1 (centres undefined), the T/C (dose: 100.0 mg/kg/injection, schedule: Q04DX003 (ip), vehicle: Klucel (hydroxypropylcellulose) (HPC)) was 100 % of control, the T/C (dose: 200.0 mg/kg/injection, schedule: Q04DX003 (ip), vehicle: Klucel (hydroxypropylcellulose) (HPC)) was 100 % of control and the T/C (dose: 400.0 mg/kg/injection, schedule: Q04DX003 (ip), vehicle: Klucel (hydroxypropylcellulose) (HPC)) was 92 % of control.
C=C(Cl)CN1C(=O)c2ccccc2C1=O was tested, and the T/C [9] was 93 % of control, the T/C [10] was 93 % of control and the T/C [11] was 101 % of control.
For CC1(C)C=Cc2ccccc21, the T/C [3] was 104 % of control and the T/C [5] was 96 % of control.
O=C1CCCN1.O=C1CCCN1.[Br][Co][Br] was tested, and the T/C (dose: 37.5 mg/kg/injection, schedule: Q01DX009 (ip), vehicle: saline) was 113 % of control, the T/C (dose: 50.0 mg/kg/injection, schedule: Q04DX003 (ip), vehicle: saline) was 107 % of control and the T/C (dose: 75.0 mg/kg/injection, schedule: Q01DX001 (ip), vehicle: saline) was 103 % of control. For the same molecule, the T/C (dose: 75.0 mg/kg/injection, schedule: Q01DX009 (ip), vehicle: saline) was 116 % of control, the T/C (dose: 100.0 mg/kg/injection, schedule: Q04DX003 (ip), vehicle: saline) was 109 % of control and the T/C (dose: 150.0 mg/kg/injection, schedule: Q01DX001 (ip), vehicle: saline) was 102 % of control. For the same molecule, the T/C (dose: 300.0 mg/kg/injection, schedule: Q01DX001 (ip), vehicle: saline) was 97 % of control.
CCC(C)C(CN)(CCCN1CCCC1)c1cccc2ccccc12 (centres undefined) was tested, and the T/C [3] was 92 % of control, the T/C [5] was 89 % of control and the T/C [6] was 101 % of control.
C=C1CC2C=CC1C2 (centres undefined) (tested in a mixture with another compound) was tested, and the T/C (dose: 100.0 mg/kg/injection, schedule: Q01DX001 (ip), vehicle: saline with Tween-80) was 98 % of control, the T/C (dose: 200.0 mg/kg/injection, schedule: Q01DX001 (ip), vehicle: saline with Tween-80) was 93 % of control and the T/C (dose: 400.0 mg/kg/injection, schedule: Q01DX001 (ip), vehicle: saline with Tween-80) was 94 % of control.
